This is an account of results in a melting point compilation (Tetko et al.; mined from patent text by program, amines drawn as free bases though some values may be those of a salt).

Some results are limits rather than exact numbers.

The compound `COc1cc2c(cc1OC)C1Cc3cc(OC)c(OC(=O)C=Cc4cc(OC)c(OC)c(OC)c4)cc3CN1CC2` (stereo not given) had a melting point of 207 to 210 °C.

In turn, `Cc1nc(-n2ccc(NC(=O)c3ccccc3)cc2=O)sc1C(=O)NCc1ccccc1` yielded a melting point of 246 to 248 °C.

`Cc1ccc(-c2cc3cc(Cl)c(Cl)cc3o2)cc1` came in with a melting point of 129 to 130 °C.

As for `COc1cc(CCc2ccc(C)cc2)cc(OC)c1OC`, the melting point was in the range of 51 to 52 °C.

The compound `CCCN1c2cscc2CN(C)c2ccccc21` came in with a melting point of 90 to 92 °C.

Turning to `CS(=O)(=O)Nc1ccc(CCN2CCc3ccc(NS(C)(=O)=O)cc3CC2)cc1`, the melting point was 184 to 187 °C.

In turn, `CCCCOCCOc1ccc(-c2ccc3c(c2)C=C(C(=O)O)CCN3CC2CCC2)cc1` yielded a melting point of 110 to 112 °C.

On to `CC(=O)CCCCC(=O)Nc1ccccc1`, for which the melting point was 85.5 to 86.5 °C.

With `CCN(CC)C(=O)c1ccccc1-c1ccc(F)cc1`, the melting point lay in the range of 57 to 59 °C.

`CCOC(=O)c1cn(-c2cc(OC)c(F)cc2F)c2c(C)c(N)c(F)cc2c1=O`: the melting point lay in the range of 232 to 235 °C.

With `O=c1[nH]ccc2cc(S(=O)(=O)N3CCCNCC3)ccc12`, the melting point was 266 to 267 °C.

The compound `CC(=O)C(C(=O)Nc1ccccc1)C(C)C` (stereo not given) displayed a melting point of 135 to 137 °C.

For `Cc1ccccc1C(=O)NCN1CCN(c2ncccc2C#N)CC1`, the melting point fell in the range of 124 to 127 °C.

The compound `COC(=O)c1ccc2ccc(OC)cc2c1O` came in with a melting point of 80 to 83 °C.

Turning to `CC1(C)CC(n2cc(C#N)c3ccccc32)c2cc(C#N)ccc2O1` (stereo not given), the melting point was 175 to 178 °C.

Take `C[C@H]1CN(C(=O)OC(C)(C)C)CCCN1S(=O)(=O)c1ccccc1[N+](=O)[O-]`: the melting point was in the range of 113 to 114 °C.

In turn, `OC1(c2ccccc2Cc2ccccc2)CCN(CC2CC2)C1` (stereo not given) returned a melting point of 118 to 120 °C.

As to `C(OCC1CO1)C1CO1` (stereo not given), the melting point fell in the range of 90 to 93 °C.

`CCOC(=O)c1nc(-c2ccccc2)nc2c1c1ccc(Cl)cc1n2C`: the melting point lay in the range of 139 to 140 °C.

`CCC(O)c1cc2c(=O)n(NS(C)(=O)=O)c(=O)[nH]c2cc1C(F)(F)F` (stereo not given) had a melting point of 219 to 222 °C.

`Cc1cc(OS(=O)(=O)c2c(Cl)cccc2Cl)cc2c(C3CCN(C)CC3)c[nH]c12` had a melting point of 179 °C.

On to `O=S(=O)(c1ccccc1)C(F)(F)C(O)c1ccco1` (stereo not given), for which the melting point fell in the range of 72 to 74 °C.

In the case of `CCCCc1nn(-c2cc(N)ccc2Cl)c(=O)n1Cc1ccc(-c2cc(CCC)ccc2S(=O)(=O)NC(C)(C)C)cc1F`, the melting point lay in the range of 85 to 87 °C.

Regarding `Cc1ccc2c(CCNCC#N)c[nH]c2c1`, the melting point amounted to 92 °C.

As to `CCCCCCCCCCCCCCCCCNC(=O)OCC(CO)Oc1cc(C)on1` (stereo not given), the melting point fell in the range of 77 to 79 °C.

The compound `Nc1nc2c(s1)C(=O)CCC2` registered a melting point of 259 to 262 °C.

Turning to `C#CC(Cc1ccc(OC)c(OC2CCCC2)c1)C(=O)O` (stereo not given), the melting point was 109 to 110 °C.

On to `CCCCc1nc2cccc(C(=O)O)c2n1Cc1ccc(-c2ccccc2-c2nc(=O)o[nH]2)cc1`, for which the melting point fell in the range of 165 to 167 °C.

In turn, `Nc1ccnc2c(NC(=O)c3c(Cl)cccc3Cl)cccc12` gave a melting point of 265 to 275 °C.

In turn, `CCn1c(=O)cc(C)c2cc(C(O)(C(F)(F)F)C(F)(F)F)ccc21` registered a melting point of 91 to 92 °C.

As to `Cc1ccc2c(NCc3ccc(NC(=O)c4ccc(F)cc4)cc3)nc(NCCc3ccccn3)nc2c1`, the melting point is 112 to 115 °C.

`Cc1cc(Cl)cc(CO)c1` came in with a melting point of 32 to 34.5 °C.

Turning to `c1ccc(Cn2ccnc2-c2nnn[nH]2)cc1`, the melting point was 274 to 275 °C.

Consider `CCOC(=O)c1cn(-c2cccnc2)nc1Br`, for which the melting point lay in the range of 94 to 95 °C.

`OCc1ccc(-c2cccnc2)o1` gave a melting point of 119 to 120 °C.

`O=S(=O)(Nc1cccc2cc(-c3nccs3)[nH]c12)c1cccs1` registered a melting point of 164 to 165 °C.

For the compound `CC(C)CC(=O)Nc1ccc2oc3c(c2c1)CCC3`, the melting point lay within 162 to 163 °C.

In the case of `CCOC(=O)Oc1ccc(N)c(C(=O)O)c1`, the melting point was in the range of 157 to 158 °C.

For `O=C1Nc2cc(F)ccc2Oc2ccccc21`, the melting point fell in the range of 228 to 229 °C.

For the compound `C=C(C)C(=O)Nc1ccc(O)c(C(=O)O)c1`, the melting point is 218 °C.

In the case of `CCOC(=O)CCc1c(OCCCCCBr)ccc2ccc(OCC(=O)OCC)cc12`, the melting point lay within 29.5 to 32 °C.

In turn, `CCOC(=O)c1ccccc1SN(C(=O)NC(=O)c1ccccc1Cl)c1ccc(Oc2ccc(C(F)(F)F)cc2Cl)cc1` returned a melting point of 98 to 100 °C.

`CC(=O)NC[C@H]1CN(c2cc(F)c(N3CCN(C(=O)CO)CC3)c(F)c2)C(=O)O1` yielded a melting point of 160 to 162 °C.

With `CNC(=O)CC1N=C(C2CCCCC2)c2c(sc(C)c2C)-n2c(C)nnc21` (stereo not given), the melting point lay in the range of 228 to 231 °C.

As for `O=C(O)c1ccc(-n2sc(-c3ccccc3)cc2=O)cc1`, the melting point lay within 238 to 240 °C.

`CC(C)n1nc(-c2c(-c3ccccc3)nn3ccc(N4CCN(Cc5ccccc5)CC4)cc23)ccc1=O` displayed a melting point of 136 to 138 °C.

Take `COc1ccc2c(c1)CCC(NC(C)=O)(C(=O)O)C2` (stereo not given): the melting point was in the range of 252 to 254 °C.

On to `COc1cc(CC#N)c(CCN)cc1OC`, for which the melting point is 78 °C.

In the case of `COCc1ccc(-c2coc3ccc(-c4nnc(C)o4)cc23)cc1`, the melting point lay within 158 to 159 °C.

`O=C(CCC(F)([N+](=O)[O-])[N+](=O)[O-])NNC(=O)C(F)(F)C(F)(F)C(F)(F)F`: the melting point was 143 to 144 °C.

As for `O=c1nc(-c2ccc3c(c2)OCCO3)c2cc3c(cc2[nH]1)OCO3`, the melting point was over 300 °C.

In the case of `CC(C)(C)OC(=O)N(Cc1ccccc1)C1CN(C(c2ccccc2)c2ccccc2)C1`, the melting point was in the range of 117 to 118 °C.

In turn, `CCCCCCCCCCCn1ncnc1NC(=O)Nc1c(C(C)C)cccc1C(C)C` yielded a melting point of 146 to 148 °C.

For the compound `C=CCON=C(C(=O)O)C1=CSCCO1`, the melting point lay within 119 to 121 °C.

In turn, `CC(=O)Oc1c(C)sc2ccccc12` yielded a melting point of 75 to 77 °C.

`NS(=O)(=O)c1ccc(Cl)c(NC(=O)c2cnn3c(C(F)F)cc(-c4ccc(C(F)(F)F)cc4)nc23)c1`: the melting point amounted to 286 °C.

Compound `Cc1ccc(NC(=O)c2ccc(CN3C[C@@H](C)N[C@@H](C)C3)c(Br)c2)cc1Nc1nccc(-c2cccnc2)n1` displayed a melting point of 204 to 205 °C.

With `CCC(C)N(C)C(=O)c1cc2ccsc2c(-c2ccccc2)n1` (stereo not given), the melting point is 117 °C.

As to `Cn1cc(S(C)(=O)=O)c(=O)c2ccc(F)cc21`, the melting point lay in the range of 222 to 224 °C.

Take `O=C(NCc1ccc(Cl)cc1)c1cn2c(CCCO)cc3cc(CN4CCOCC4)cc(c1=O)c32`: the melting point is 171 to 174 °C.

With `CCOC(=O)CSc1nc(-c2ccccc2)c(-c2ccccc2)o1`, the melting point is 53 to 55 °C.

Compound `C(=C\c1nc2ccccc2n1-c1ccccn1)/c1ccco1` had a melting point of 164 to 165 °C.

The compound `CN(C)C(=O)n1cc(C(=O)C2CSC(c3cccnc3)N2)c2ccc(-c3ccccc3)cc21` (stereo not given) came in with a melting point of 91 to 97 °C.

Compound `CC(C)(COC(=O)c1cc(Cl)c(O)c(Cl)c1)COC(=O)c1cc(Cl)c(O)c(Cl)c1` displayed a melting point of 180 to 181 °C.

The compound `Cc1cc(C)c(S(=O)(=O)On2nnc3ccccc32)c(C)c1` yielded a melting point of 128 to 130 °C.

`O=S1c2ccccc2Sc2ccc(-c3nnn[nH]3)cc21` (stereo not given): the melting point fell in the range of 200 to 204 °C.

Regarding `CC1(C(=O)c2c[nH]c3ncc(-c4ccc(N5CCCCC5)cc4)nc23)CCCCC1`, the melting point lay in the range of 234 to 236 °C.

The compound `Nc1nccc(OCc2ccccc2)c1N` displayed a melting point of 135 to 136 °C.

Turning to `CP(C)(=O)COC(=O)c1cncn1C(c1ccccc1)c1ccccc1`, the melting point was found to be 174 °C.

Regarding `Cn1ncc(/C=C/C(=O)Nc2ccc(Cc3ccccn3)cc2)c1-c1ccc(F)cc1`, the melting point was in the range of 215 to 216 °C.

Consider `CC(C)NC(=O)c1c(C(=O)O)ccc(Cl)c1Cl`, for which the melting point lay in the range of 155 to 156 °C.

In turn, `COC(=O)C1=C(CCc2ccccc2)NC(CC(=O)NCCO)=C(C(=O)OC)C1c1c(Cl)cccc1Cl` (stereo not given) yielded a melting point of 192 to 194 °C.

As for `O=C(C=CCC(Nc1cc(Cl)cc(Cl)c1I)C(=O)OCc1ccccc1)Nc1ccccc1` (stereo not given), the melting point lay in the range of 146 to 148 °C.

`O=C(NCCO)c1ccc(-c2ccc3nnn(Cc4ccc5ncccc5c4)c3n2)cc1` showed a melting point of over 260 °C.

Turning to `COc1ncc(CNc2ccccc2C(=O)Nc2cccc(C(F)(F)F)c2)cc1Br`, the melting point lay in the range of 110 to 111 °C.

`O=C(CC1(c2ccccc2)CCCC1)C(=O)Nc1ccc2c(c1)COC2=O` gave a melting point of 140 to 144 °C.

Compound `CCCc1nc2c(C)ccnc2n1Cc1ccc(-c2ccncc2-c2nnn[nH]2)cc1` registered a melting point of 110 to 112 °C.

Consider `N#CC(=Cc1ccc(Cl)cc1)c1c(Cl)cc(N2N=CCNC2=O)cc1Cl`, for which the melting point is 83 to 85 °C.

With `CC1(OCC(F)(F)F)C=NC(c2cc(-c3ccc(S(C)(=O)=O)cc3)c(N3CCOCC3)s2)=CC1` (stereo not given), the melting point came to 156 °C.

As for `Cc1nc2c3c(c(C(=O)N(C)C)cc2n1C)CC[C@@H](c1ccccc1F)O3`, the melting point was in the range of 199 to 201 °C.

In the case of `Nc1ccc(OCC2CCN(c3ccncc3)CC2)cc1`, the melting point lay within 207 to 209 °C.

In turn, `CCOC(=O)CC(C(=O)c1ccccc1)C(=O)c1ccccc1` displayed a melting point of 81 to 83 °C.

In turn, `CC(C)c1c[nH]c(S)n1` displayed a melting point of 147 to 150 °C.

`O=C(O)CCSc1ccccc1CNC(=O)C1Cc2ccccc2N1S(=O)(=O)c1ccc(-c2cccc(C(F)(F)F)c2)cc1` (stereo not given): the melting point was in the range of 85 to 89 °C.

As for `CCCCCCCCCCCCCCSCC(O)CNCCO` (stereo not given), the melting point was 71.4 to 73.2 °C.

In the case of `CC1(C)C(c2ccc(S(C)(=O)=O)cc2)=C(c2ccccc2)C1F` (stereo not given), the melting point fell in the range of 79 to 81.5 °C.

`CCCc1cn2ccccc2c1C(=O)c1ccc(O)cc1` had a melting point of 210 to 214 °C.

Turning to `N#Cc1cc2[nH]c(=O)c3n[nH]c(=O)n3c2cc1-n1ccnc1`, the melting point is over 300 °C.

As to `CC1CC(C)(C)c2ccc(O)cc2O1` (stereo not given), the melting point was 97 to 98 °C.

`COCCNc1cc(Cl)cc(NCCOC)c1[N+](=O)[O-]` showed a melting point of 90 °C.

As a reminder, the melting point is the temperature of the solid-liquid transition.
